Results as given in patent publication US11919899B2, “Substituted 1-(3,3-difluoropiperidin-4-yl)-imidazo[4,5-c] quinolin-2-one compounds with blood-brain barrier penetrable capability” (priority 2020, dated 2024).

Experiments:
[1] = Blood-brain barrier penetration (brain tissue to plasma concentration ratio); assay type: in vivo; conditions: ratio of concentration in brain tissue to plasma; rats or mice, four hours after dosing
Experimental: Four hours after dosing, rats or mice were sacrificed, blood and brain tissue were collected and the concentration of the test compound was analyzed. Brain permeation is defined as the ratio of the concentration of the compound in the brain tissue to the concentration in the plasma. P-glycoprotein and BCRP (Breast Cancer Resistance Protein) are the blood-brain barrier efflux proteins, the P-glycoprotein substrate (Efflux ratio>1.5) and/or BCRP substrate (Efflux ratio>1.5) is out of the brain.

[2] = molecular target: P-glycoprotein (Homo sapiens, UniProt P08183); assay: P-glycoprotein efflux substrate; assay type: in vitro ADME; conditions: not told
[3] = molecular target: T1, BCRP (Homo sapiens, UniProt Q9UNQ0); assay: BCRP efflux substrate; assay type: in vitro ADME; conditions: not told
T1 sequence (Q9UNQ0 1-655): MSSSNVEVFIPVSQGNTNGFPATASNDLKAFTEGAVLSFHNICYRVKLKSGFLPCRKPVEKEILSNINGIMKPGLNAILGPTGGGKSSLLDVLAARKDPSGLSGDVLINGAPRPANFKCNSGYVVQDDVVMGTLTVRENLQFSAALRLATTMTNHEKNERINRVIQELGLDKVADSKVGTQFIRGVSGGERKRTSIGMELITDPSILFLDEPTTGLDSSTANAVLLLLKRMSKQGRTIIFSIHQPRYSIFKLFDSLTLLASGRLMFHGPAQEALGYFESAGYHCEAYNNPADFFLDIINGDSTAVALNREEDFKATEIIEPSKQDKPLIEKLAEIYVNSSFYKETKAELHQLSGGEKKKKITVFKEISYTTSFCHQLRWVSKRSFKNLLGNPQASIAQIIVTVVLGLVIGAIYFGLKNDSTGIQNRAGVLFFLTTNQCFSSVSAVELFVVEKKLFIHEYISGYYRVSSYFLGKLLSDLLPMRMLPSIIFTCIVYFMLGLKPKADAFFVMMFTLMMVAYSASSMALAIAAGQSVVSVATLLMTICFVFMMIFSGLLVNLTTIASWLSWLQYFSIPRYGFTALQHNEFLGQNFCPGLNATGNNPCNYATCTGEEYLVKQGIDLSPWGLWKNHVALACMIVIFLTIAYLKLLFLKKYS

Sequence of P-glycoprotein (P08183 whole entry): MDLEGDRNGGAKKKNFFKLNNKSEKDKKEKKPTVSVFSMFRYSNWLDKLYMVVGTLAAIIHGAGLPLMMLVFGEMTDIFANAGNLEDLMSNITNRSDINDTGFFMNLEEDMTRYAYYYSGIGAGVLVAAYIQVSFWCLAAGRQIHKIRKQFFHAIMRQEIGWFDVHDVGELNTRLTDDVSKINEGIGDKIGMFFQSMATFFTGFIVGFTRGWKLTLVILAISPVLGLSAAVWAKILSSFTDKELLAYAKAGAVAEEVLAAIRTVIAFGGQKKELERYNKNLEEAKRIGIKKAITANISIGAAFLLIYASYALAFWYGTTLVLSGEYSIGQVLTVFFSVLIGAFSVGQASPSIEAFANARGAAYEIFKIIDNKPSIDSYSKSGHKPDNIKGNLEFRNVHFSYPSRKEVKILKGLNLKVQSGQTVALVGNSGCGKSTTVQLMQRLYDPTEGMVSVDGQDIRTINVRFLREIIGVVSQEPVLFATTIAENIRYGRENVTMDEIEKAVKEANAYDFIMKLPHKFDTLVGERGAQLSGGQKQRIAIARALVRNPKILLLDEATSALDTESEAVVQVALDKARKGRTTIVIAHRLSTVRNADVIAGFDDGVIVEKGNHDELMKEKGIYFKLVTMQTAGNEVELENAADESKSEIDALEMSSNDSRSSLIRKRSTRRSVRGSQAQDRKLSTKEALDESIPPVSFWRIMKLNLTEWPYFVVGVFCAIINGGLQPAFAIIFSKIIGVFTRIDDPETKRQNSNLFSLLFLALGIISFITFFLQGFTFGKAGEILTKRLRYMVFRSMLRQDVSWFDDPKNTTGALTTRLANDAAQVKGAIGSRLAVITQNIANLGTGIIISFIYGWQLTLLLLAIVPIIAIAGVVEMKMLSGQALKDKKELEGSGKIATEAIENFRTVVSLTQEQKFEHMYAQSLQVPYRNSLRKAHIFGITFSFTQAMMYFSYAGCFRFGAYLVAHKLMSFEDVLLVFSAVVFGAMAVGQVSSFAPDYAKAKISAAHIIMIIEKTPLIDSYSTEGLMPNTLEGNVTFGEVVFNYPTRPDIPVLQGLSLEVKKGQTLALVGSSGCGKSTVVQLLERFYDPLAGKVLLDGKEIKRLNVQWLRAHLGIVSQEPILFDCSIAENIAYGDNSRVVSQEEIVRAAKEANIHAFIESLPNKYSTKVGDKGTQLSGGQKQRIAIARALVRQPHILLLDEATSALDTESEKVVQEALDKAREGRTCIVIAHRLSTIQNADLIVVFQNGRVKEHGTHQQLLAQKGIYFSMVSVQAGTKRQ

| SMILES | Kp at 4 h [1] | efflux ratio [2] | efflux ratio [3] |
| --- | --- | --- | --- |
| CCN1CCC(n2c(=O)n(C)c3cnc4ccc(-c5ccc(OC)nc5)cc4c32)C(F)(F)C1 (racemic) [Compound 2, (R/S)-1-(1-ethyl-3,3-difluoropiperidin-4-yl)-8-(6-methoxypyridin-3-yl)-3-methyl-1,3-dihydro-2H-imidazo[4,5-c]quinolin-2-one] | > 0.3 | < 1 | < 1 |
| COc1ccc(-c2ccc3ncc4c(c3c2)n(C2CCN(C(C)C)CC2(F)F)c(=O)n4C)cn1 (racemic) [Compound 3, (R/S)-1-(3,3-difluoro-1-isopropylpiperidin-4-yl)-8-(6-methoxypyridin-3-yl)-3-methyl-1,3-dihydro-2H-imidazo[4,5-c]quinolin-2-one] | > 0.3 | < 1 | < 1 |
| COc1ccc(-c2cc3c(cc2F)ncc2c3n(C3CCN(C)CC3(F)F)c(=O)n2C)cn1 (racemic) [Compound 5, (R/S)-1-(3,3-difluoro-1-methylpiperidin-4-yl)-7-fluoro-8-(6-methoxypyridin-3-yl)-3-methyl-1,3-dihydro-2H-imidazo[4,5-c]quinolin-2-one] | > 0.3 | < 1 | < 1 |
| CN1CCC(n2c(=O)n(C)c3cnc4ccc(-c5ccc(N(C)C)nc5)cc4c32)C(F)(F)C1 (racemic) [Compound 8, (R/S)-1-(3,3-difluoro-1-methylpiperidin-4-yl)-8-(6-(dimethylamino)pyridin-3-yl)-3-methyl-1,3-dihydro-2H-imidazo[4,5-c]quinolin-2-one] | > 0.3 | < 1 | < 1 |
| CN1CCC(n2c(=O)n(C)c3cnc4ccc(-c5ccc(N6CC(N(C)C)C6)nc5)cc4c32)C(F)(F)C1 (racemic) [Compound 11, (R/S)-1-(3,3-difluoro-1-methylpiperidin-4-yl)-8-(6-(3-(dimethylamino)azetidin-1-yl)pyridin-3-yl)-3-methyl-1,3-dihydro-2H-imidazo[4,5-c]quinolin-2-one] | > 0.3 | < 1 | < 1 |
| CN1CCC(n2c(=O)n(C)c3cnc4ccc(-c5ccc(N6CC7C6CCN7C)nc5)cc4c32)C(F)(F)C1 (racemic) [Compound 13, (R/S)-1-(3,3-difluoro-1-methylpiperidin-4-yl)-3-methyl-8-(6-((1R,5R/1S,5S)-(2-methyl-2,6-diazabicyclo[3.2.0]heptan-6-yl)pyridin-3-yl)-1,3-dihydro-2H-imidazo[4,5-c]quinolin-2-one] | > 0.3 | < 1 | < 1 |
| CCN1CC[C@@H](n2c(=O)n(C)c3cnc4ccc(-c5ccc(OC)nc5)cc4c32)C(F)(F)C1 [Compound 15, (R)-1-(1-ethyl-3,3-difluoropiperidin-4-yl)-8-(6-methoxypyridin-3-yl)-3-methyl-1,3-dihydro-2H-imidazo[4,5-c]quinolin-2-one] | > 0.3 | < 1 | < 1 |
| COc1ccc(-c2ccc3ncc4c(c3c2)n([C@@H]2CCN(C(C)C)CC2(F)F)c(=O)n4C)cn1 [Compound 16, (R)-1-(3,3-difluoro-1-isopropylpiperidin-4-yl)-8-(6-methoxypyridin-3-yl)-3-methyl-1,3-dihydro-2H-imidazo[4,5-c]quinolin-2-one] | > 0.3 | < 1 | < 1 |
| COc1ccc(-c2cc3c(cc2F)ncc2c3n([C@@H]3CCN(C)CC3(F)F)c(=O)n2C)cn1 [Compound 18, (R)-1-(3,3-difluoro-1-methylpiperidin-4-yl)-7-fluoro-8-(6-methoxypyridin-3-yl)-3-methyl-1,3-dihydro-2H-imidazo[4,5-c]quinolin-2-one] | > 0.3 | < 1 | < 1 |
| CN1CC[C@@H](n2c(=O)n(C)c3cnc4ccc(-c5ccc(N6CC(N(C)C)C6)nc5)cc4c32)C(F)(F)C1 [Compound 24, (R)-1-(3,3-difluoro-1-methylpiperidin-4-yl)-8-(6-(3-(dimethylamino)azetidin-1-yl)pyridin-3-yl)-3-methyl-1,3-dihydro-2H-imidazo[4,5-c]quinolin-2-one] | > 0.3 | < 1 | < 1 |
| CN1CC[C@@H](n2c(=O)n(C)c3cnc4ccc(-c5ccc(N6C[C@@H]7[C@H]6CCN7C)nc5)cc4c32)C(F)(F)C1 [Compound 26] | > 0.3 | < 1 | < 1 |
| CN1CC[C@@H](n2c(=O)n(C)c3cnc4ccc(-c5ccc(N6C[C@H]7[C@@H]6CCN7C)nc5)cc4c32)C(F)(F)C1 [Compound 27] | > 0.3 | < 1 | < 1 |

The next lines start with the values.

| Kp at 4 h [1] | efflux ratio [2] | efflux ratio [3] | SMILES |
| --- | --- | --- | --- |
| > 0.3 | < 1 | < 1 | CCOc1ccc(-c2ccc3ncc4c(c3c2)n(C2CCN(C)CC2(F)F)c(=O)n4C)cn1 (racemic) [Compound 4, (R/S)-1-(3,3-difluoro-1-methylpiperidin-4-yl)-8-(6-ethoxypyridin-3-yl)-3-methyl-1,3-dihydro-2H-imidazo[4,5-c]quinolin-2-one] |
| > 0.3 | < 1 | < 1 | CC(C)Oc1ccc(-c2ccc3ncc4c(c3c2)n(C2CCN(C)CC2(F)F)c(=O)n4C)cn1 (racemic) [Compound 7, (R/S)-1-(3,3-difluoro-1-methylpiperidin-4-yl)-8-(6-isopropoxypyridin-3-yl)-3-methyl-1,3-dihydro-2H-imidazo[4,5-c]quinolin-2-one] |
| > 0.3 | < 1 | < 1 | CN1CCC(n2c(=O)n(C)c3cnc4ccc(-c5ccc(OC6CC6)nc5)cc4c32)C(F)(F)C1 (racemic) [Compound 10, (R/S)-8-(6-cyclopropoxypyridin-3-yl)-1-(3,3-difluoro-1-methylpiperidin-4-yl)-3-methyl-1,3-dihydro-2H-imidazo[4,5-c]quinolin-2-one] |
| > 0.3 | < 1 | < 1 | CCOc1ccc(-c2ccc3ncc4c(c3c2)n([C@@H]2CCN(C)CC2(F)F)c(=O)n4C)cn1 [Compound 17, (R)-1-(3,3-difluoro-1-methylpiperidin-4-yl)-8-(6-ethoxypyridin-3-yl)-3-methyl-1,3-dihydro-2H-imidazo[4,5-c]quinolin-2-one] |
| > 0.3 | < 1 | < 1 | CC(C)Oc1ccc(-c2ccc3ncc4c(c3c2)n([C@@H]2CCN(C)CC2(F)F)c(=O)n4C)cn1 [Compound 20, (R)-1-(3,3-difluoro-1-methylpiperidin-4-yl)-8-(6-isopropoxypyridin-3-yl)-3-methyl-1,3-dihydro-2H-imidazo[4,5-c]quinolin-2-one] |
| > 0.3 | < 1 | < 1 | CN1CC[C@@H](n2c(=O)n(C)c3cnc4ccc(-c5ccc(N(C)C)nc5)cc4c32)C(F)(F)C1 [Compound 21, (R)-1-(3,3-difluoro-1-methylpiperidin-4-yl)-8-(6-(dimethylamino)pyridin-3-yl)-3-methyl-1,3-dihydro-2H-imidazo[4,5-c]quinolin-2-one] |
| > 0.3 | < 1 | < 1 | CN1CC[C@@H](n2c(=O)n(C)c3cnc4ccc(-c5ccc(OC6CC6)nc5)cc4c32)C(F)(F)C1 [Compound 23, (R)-8-(6-cyclopropoxypyridin-3-yl)-1-(3,3-difluoro-1-methylpiperidin-4-yl)-3-methyl-1,3-dihydro-2H-imidazo[4,5-c]quinolin-2-one] |
